Experimental findings from ChEMBL document CHEMBL4387758, “Discovery and Biological evaluation of pyrimido[4,5-d]pyrimidine-2,4(1H,3H)-dione derivatives as potent Bruton's tyrosine kinase inhibitors” (Bioorg Med Chem, 2019) are described below.

Assay [1] deals with T1, Tyrosine-protein kinase BTK (Homo sapiens, UniProt Q06187). Kind of assay: Inhibition of BTK (unknown origin) by ELISA. (An ELISA detects its analyte on a solid surface through an enzyme-linked reagent.)
Assay [2] has as its system TMD8. Nature of the assay: Cell cycle arrest in BTK-dependent human TMD8 cells assessed as accumulation of cells in G1 phase at 1 uM incubated for 72 hrs by propidium iodide staining based flow cytometry. The assay is classed as functional. Background: In flow cytometry, cells or beads pass a laser one at a time.
For assay [3], the target named is T1, Tyrosine-protein kinase BTK. Nature of the assay: Inhibition of BTK phosphorylation at Tyr223 residue in human TMD8 cells at 0.1 to 1000 nM by Western blot analysis. The format is cell-based. A general note: In western blotting, separated proteins are transferred to a membrane and probed.
Another assay concerns Ramos. Nature of the assay: cells. The note with it: Homo sapiens, 72 h.
Assay [4] deals with TMD8. Nature of the assay: Antiproliferative activity against human TMD8 cells assessed as reduction in cell viability incubated for 72 hrs by CCK-8 assay. The format is functional, cell-based. The note with it: TMD8, 72 h.
The species named for another assay is Homo sapiens. Kind of assay: Selectivity ratio of IC50 for inhibition of EGFR (unknown origin) to IC50 for inhibition of BTK (unknown origin).

T1 sequence (Q06187 whole entry): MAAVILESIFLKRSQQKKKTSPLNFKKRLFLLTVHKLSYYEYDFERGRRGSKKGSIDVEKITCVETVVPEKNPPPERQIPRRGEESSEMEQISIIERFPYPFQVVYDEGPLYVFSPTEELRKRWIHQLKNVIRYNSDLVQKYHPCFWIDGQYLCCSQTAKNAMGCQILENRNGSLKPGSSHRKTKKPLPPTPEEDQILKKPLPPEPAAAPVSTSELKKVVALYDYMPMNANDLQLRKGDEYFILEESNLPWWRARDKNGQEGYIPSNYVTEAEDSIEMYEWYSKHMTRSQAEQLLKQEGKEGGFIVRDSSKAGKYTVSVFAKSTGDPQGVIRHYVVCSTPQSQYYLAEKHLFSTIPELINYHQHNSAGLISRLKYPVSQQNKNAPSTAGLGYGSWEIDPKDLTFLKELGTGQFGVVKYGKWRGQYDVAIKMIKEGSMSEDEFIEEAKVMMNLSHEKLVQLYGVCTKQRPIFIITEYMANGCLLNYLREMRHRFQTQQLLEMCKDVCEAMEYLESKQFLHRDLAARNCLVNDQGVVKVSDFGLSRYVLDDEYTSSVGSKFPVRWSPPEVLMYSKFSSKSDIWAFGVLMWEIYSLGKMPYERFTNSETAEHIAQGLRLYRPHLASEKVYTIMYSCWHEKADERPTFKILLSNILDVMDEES
Description for Ramos: Antiproliferative activity against human Ramos cells assessed as reduction in cell viability incubated for 72 hrs by CCK-8 assay

`C=CC(=O)Nc1cccc(-n2c(=O)n(C(C)C)c(=O)c3cnc(Nc4ccc(N5CCN(C)CC5)c(OC)c4)nc32)c1`: the results for the IC50 (in assay [1]; in the assay with Ramos; in the assay on TMD8 [4]) were 1.2 nM, 9650 nM and 810 nM, respectively. Moreover, in the assay on TMD8 [2], the Activity worked out at 75.4%. The inhibition result in assay [3] is “Dose-dependent effect”.
Regarding `C=CC(=O)Nc1cccc(-n2c(=O)n(Cc3ccccc3)c(=O)c3cnc(Nc4ccc(N5CCC(N(C)C)CC5)cc4OC)nc32)c1`, the Ratio IC50 in the assay listed under Homo sapiens is 206. Besides, 248 nM corresponded to half-maximal inhibition in assay [1] (IC50).
For the compound `C=CC(=O)Nc1cccc(-n2c(=O)n(C(C)C)c(=O)c3cnc(Nc4ccc(N5CCN(C)CC5)cc4OC)nc32)c1`, in assay [1], it took 518 nM to reach half-maximal inhibition (IC50).
In assay [1], `C=CC(=O)Nc1cccc(-n2c(=O)n(C)c(=O)c3cnc(Nc4ccc(N5CCC(N(C)C)CC5)cc4OC)nc32)c1` returned an IC50 of 364 nM.
Regarding `C=CC(=O)Nc1cccc(-n2c(=O)n(C(C)C)c(=O)c3cnc(Nc4ccc(OCCN(C)C)cc4OC)nc32)c1`, the IC50 in assay [1] amounted to 349 nM.
As for `C=CC(=O)Nc1cccc(-n2c(=O)n(C(C)C)c(=O)c3cnc(Nc4ccc(N5CCN(C)CC5)c(C)c4)nc32)c1`, the half-maximal inhibitory concentration (IC50) is 0.8 nM in assay [1], 9210 nM in the assay with Ramos and 720 nM in the assay with TMD8 [4]. Also, the Activity in the assay on TMD8 [2] amounted to 75.2%. The inhibition entry in assay [3] was “Dose-dependent effect”.
Consider `C=CC(=O)Nc1cccc(-n2c(=O)n(C)c(=O)c3cnc(Nc4ccccc4)nc32)c1`, for which, in assay [1], inhibition was half-maximal at 6.2 nM (IC50).
For `C=CC(=O)Nc1cccc(-n2c(=O)n(C(C)C)c(=O)c3cnc(Nc4ccc(N(C)CCN(C)C)cc4OC)nc32)c1`, half-maximal inhibition in assay [1] (IC50) required 982 nM.
Same read-out and setting: under `C=CC(=O)Nc1cccc(-n2c(=O)n(C)c(=O)c3cnc(Nc4ccc(N5CCN(C(C)=O)CC5)cc4OC)nc32)c1` stands 718 nM.
Same read-out and setting: the same measure for `C=CC(=O)Nc1cccc(-n2c(=O)n(C)c(=O)c3cnc(Nc4ccc(N5CCOCC5)cc4OC)nc32)c1`: 852 nM; for `C=CC(=O)Nc1cccc(-n2c(=O)n(CCC)c(=O)c3cnc(Nc4ccc(N5CCC(N(C)C)CC5)cc4OC)nc32)c1`: 30 nM.
Consider `C=CC(=O)Nc1cccc(-n2c(=O)n(C(C)C)c(=O)c3cnc(Nc4ccc(N5CCC(N(C)C)CC5)cc4OC)nc32)c1`, for which the IC50 in assay [1] was 359 nM.
Regarding `C=CC(=O)Nc1cccc(-n2c(=O)n(CCc3ccccc3)c(=O)c3cnc(Nc4ccc(N5CCC(N(C)C)CC5)cc4OC)nc32)c1`, in assay [1], half-maximal inhibition (IC50) required 23 nM.
Regarding `C=CC(=O)Nc1cccc(-n2c(=O)n(CCCc3ccccc3)c(=O)c3cnc(Nc4ccc(N5CCC(N(C)C)CC5)cc4OC)nc32)c1`, half-maximal inhibition in assay [1] (IC50) required 76 nM.
In turn, `C=CC(=O)Nc1cccc(-n2c(=O)n(C)c(=O)c3cnc(Nc4ccc(N5CCSCC5)cc4OC)nc32)c1` gave an IC50 in assay [1] of 806 nM.
For the compound `C=CC(=O)Nc1cccc(-n2c(=O)n(CC)c(=O)c3cnc(Nc4ccc(N5CCC(N(C)C)CC5)cc4OC)nc32)c1`, the half-maximal inhibitory concentration (IC50) in assay [1] is 396 nM.
With `C=CC(=O)Nc1cccc(-n2c(=O)n(C(C)C)c(=O)c3cnc(Nc4ccc(N5CCC(N6CCN(C)CC6)CC5)cc4OC)nc32)c1`, in assay [1], the IC50 turned out to be 145 nM.
In turn, `C=CC(=O)Nc1cccc(-n2c(=O)n(C)c(=O)c3cnc(Nc4ccccc4OC)nc32)c1` came in with an IC50 in assay [1] of 996 nM.

For orientation: IC50 means the point on the concentration scale where inhibition reaches its midpoint.
